Assay results reported in article PMC3567212 (Biochemistry, 2012).
Where a chain is given by its changes, count along the chain named.

Tests used:
Assay in all cases: coupled spectrophotometric assay
Format in all cases: biochemical
[1] = target: T1, Rhizobium etli pyruvate carboxylase (RePC) (Rhizobium etli, UniProt Q2K340, R472K)
T1 sequence (Q2K340 1-1154 R472K): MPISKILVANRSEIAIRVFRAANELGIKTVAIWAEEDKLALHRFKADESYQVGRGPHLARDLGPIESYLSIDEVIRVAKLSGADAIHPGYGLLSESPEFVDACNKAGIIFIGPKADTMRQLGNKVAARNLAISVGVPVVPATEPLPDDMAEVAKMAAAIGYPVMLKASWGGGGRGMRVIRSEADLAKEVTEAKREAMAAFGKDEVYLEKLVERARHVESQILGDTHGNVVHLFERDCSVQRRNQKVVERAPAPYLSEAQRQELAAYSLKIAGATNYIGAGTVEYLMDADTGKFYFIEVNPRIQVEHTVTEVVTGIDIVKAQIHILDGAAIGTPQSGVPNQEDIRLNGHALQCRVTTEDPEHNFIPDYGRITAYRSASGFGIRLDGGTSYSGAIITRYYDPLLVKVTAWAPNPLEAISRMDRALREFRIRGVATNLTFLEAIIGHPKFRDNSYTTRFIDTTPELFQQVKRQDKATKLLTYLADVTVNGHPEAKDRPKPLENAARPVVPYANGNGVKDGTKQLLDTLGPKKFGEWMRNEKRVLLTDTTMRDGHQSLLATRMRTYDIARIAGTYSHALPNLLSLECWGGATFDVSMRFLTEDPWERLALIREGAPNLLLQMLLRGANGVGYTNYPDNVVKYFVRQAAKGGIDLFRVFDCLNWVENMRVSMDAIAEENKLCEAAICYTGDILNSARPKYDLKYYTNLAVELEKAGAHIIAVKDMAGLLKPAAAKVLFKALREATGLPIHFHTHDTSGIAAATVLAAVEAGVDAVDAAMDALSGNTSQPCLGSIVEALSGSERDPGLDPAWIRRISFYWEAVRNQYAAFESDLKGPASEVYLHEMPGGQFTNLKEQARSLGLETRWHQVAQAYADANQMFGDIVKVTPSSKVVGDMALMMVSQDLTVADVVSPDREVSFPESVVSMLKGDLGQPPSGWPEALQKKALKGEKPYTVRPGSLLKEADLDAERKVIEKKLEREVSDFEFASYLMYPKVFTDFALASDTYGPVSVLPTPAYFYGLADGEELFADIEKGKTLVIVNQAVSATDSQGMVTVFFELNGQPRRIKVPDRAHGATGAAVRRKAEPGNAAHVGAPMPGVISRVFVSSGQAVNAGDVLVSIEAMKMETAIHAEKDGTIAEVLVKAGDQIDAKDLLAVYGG

[2] = target: Rhizobium etli pyruvate carboxylase (RePC) (Rhizobium etli, UniProt Q2K340, R472S)
[3] = target: T2, Rhizobium etli pyruvate carboxylase (RePC) (Rhizobium etli, UniProt Q2K340)
T2 sequence (Q2K340 1-1154): T1 sequence (Q2K340 1-1154 R472K) with K472R

`N[C@@H](CC(=O)O)C(=O)O` [L-aspartate] was tested, and the Ki [1] was 7 ± 1 mM, the Ki [2] was 7 ± 1 mM and the Ki [3] was 5 ± 0.6 mM.
